Literature values, collected in US7323174B1, “Modulation of immune response and methods based thereon” (Arizona Board of Regents on behalf of The University of …, priority 2000, dated 2008).
No end group written: not given here.

Assays:
[1] = system: immunodeficiency-type retrovirus; conditions: individuals infected with an immunodeficiency-type retrovirus; described in U.S. Pat. No. 5,911,990
[2] = system: Th1 and Th2 cytokine production; conditions: individuals infected with an immunodeficiency-type retrovirus; described in U.S. Pat. No. 5,911,990

Sequence: CKPISGHNSLFWYRQT [SEQ ID NO:1]
- progression to AIDS [1]: suppress progression to AIDS
- aberrant Th1 and Th2 cytokine production [2]: normalize aberrant Th1 and Th2 cytokine production
